Results as given in BindingDB's records for doi:10.7270/Q2639NCQ (The Scripps Research Institute Molecular Screening Center, 2013).

Biological target: T1, Mitochondrial peptide methionine sulfoxide reductase (Bos taurus, UniProt P54149)
T1 sequence (P54149 whole entry): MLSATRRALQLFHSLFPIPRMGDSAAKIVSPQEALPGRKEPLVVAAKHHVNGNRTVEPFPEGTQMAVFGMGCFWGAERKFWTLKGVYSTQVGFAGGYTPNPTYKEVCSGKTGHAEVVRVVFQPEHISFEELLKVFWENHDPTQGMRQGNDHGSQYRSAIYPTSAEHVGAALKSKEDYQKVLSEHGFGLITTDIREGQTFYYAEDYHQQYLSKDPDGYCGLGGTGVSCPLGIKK

IC50 | Structure (SMILES)
> 155 µM | Cc1ccccc1-c1nc(C#N)c(N2CCCCC2)o1 [MLS001165046]
118 µM | O=C(O)Cc1sc(N=NC=CCc2ccccc2)nc1O [SMR000236709]
> 155 µM | COC(=O)c1ccc(S(=O)(=O)N2CCCN(Cc3cccc(Br)c3F)CC2)n1C [5-[[4-[(3-bromo-2-fluorophenyl)methyl]-1,4-diazepan-1-yl]sulfonyl]-1-methyl-2-pyrrolecarboxylic acid methyl ester]
97.5 µM | O=C(O)Cc1sc(N=NC=CCc2ccccc2)nc1O [2-[4-oxo-2-[(2E)-2-[(E)-3-phenylprop-2-enylidene]hydrazinyl]-1,3-thiazol-5-yl]acetic acid]
> 155 µM | CN(C)CCCN1C(=O)c2cccc3c([N+](=O)[O-])ccc(c23)C1=O [2-[3-(dimethylamino)propyl]-6-nitro-1H-benzo[de]isoquinoline-1,3(2H)-dione]
> 155 µM | Cc1ccc(C)c(NC(=O)/C(C#N)=C/c2ccc[nH]2)c1 [SMR000678612]
> 155 µM | COc1cccc(Nc2nc3cc(OC)ccc3cc2C#N)c1 [7-methoxy-2-(3-methoxyanilino)-3-quinolinecarbonitrile]
> 155 µM | N#Cc1c(-n2cccc2CN=O)sc2c1CCCC2 [SMR000009830]
> 155 µM | CCc1noc(C)c1C(=O)Nc1nc(-c2cc(C)ccc2C)c(C)s1 [MLS000324834]
> 155 µM | CC(N=O)c1cc(C(C)(C)C)c(O)c(C(C)(C)C)c1 (stereo unspecified)
> 155 µM | O=C(N/N=C/c1ccc2c(c1)OCO2)c1ccc(Br)o1 [SMR000185016]
> 155 µM | O=[N+]([O-])c1cc([N+](=O)[O-])c(N2CCOCC2)cc1NCc1ccccc1 [5-morpholin-4-yl-2,4-dinitro-N-(phenylmethyl)aniline]
12.8 µM | COc1ccc2nc(C)cc(N=NCc3ccc(F)cc3)c2c1 [N-[(4-fluorophenyl)methylideneamino]-6-methoxy-2-methyl-4-quinolinamine]
> 155 µM | c1ccc2c(c1)nc(N1CCOCC1)c1nnnn12 [4-(4-tetrazolo[1,5-a]quinoxalinyl)morpholine]
> 155 µM | Cc1cc([N+](=O)[O-])ccc1Nc1nc2ccccc2n2cnnc12 [N-(2-methyl-4-nitrophenyl)[1,2,4]triazolo[4,3-a]quinoxalin-4-amine]
> 155 µM | COC(=O)/C(=C1/Oc2ccc(C)cc2S1)C(F)(F)F [methyl (2E)-3,3,3-trifluoro-2-(5-methyl-1,3-benzoxathiol-2-ylidene)propanoate]
> 155 µM | Nc1ccccc1Nc1ccc([N+](=O)[O-])cc1[N+](=O)[O-] [N~1~-(2,4-dinitrophenyl)-1,2-benzenediamine]
> 155 µM | COc1cccc2c1Oc1cc([N+](=O)[O-])cc(N(C)C(C)=O)c1C=C2 [SMR000559347]
> 155 µM | CCCCCc1c(-c2cccc(OC)c2)ncn1CCc1ccccc1OC [4-(3-methoxyphenyl)-1-[2-(2-methoxyphenyl)ethyl]-5-pentyl-imidazole;2,2,2-tris(fluoranyl)ethanoic acid]
> 155 µM | Cc1ccccc1Nc1ncnc2n[nH]cc12 [SMR001556847]
> 155 µM | COc1cc(C2C(C(=O)c3sc(C)nc3C)C(=O)C(=O)N2CCN(C)C)cc(OC)c1OC (stereo unspecified) [1-[2-(dimethylamino)ethyl]-3-[(2,4-dimethyl-5-thiazolyl)-oxomethyl]-4-hydroxy-2-(3,4,5-trimethoxyphenyl)-2H-pyrrol-5-one]
> 155 µM | COc1ccc(NC(=O)COC(=O)C2CCCCC2)c([N+](=O)[O-])c1 [SMR000261453]
> 155 µM | O=Cc1cn(-c2ccccc2)nc1-c1ccc(F)cc1 [3-(4-fluorophenyl)-1-phenyl-1H-pyrazole-4-carbaldehyde]

IC50 | Structure (SMILES)
> 155 µM | CC(=O)COc1ccc2oc(=O)cc(-c3cc4ccccc4o3)c2c1 [SMR000641655]
> 155 µM | O=C1C(=O)N(CCCn2ccnc2)C(c2cccc(Br)c2)C1C(=O)c1ccco1 (stereo unspecified) [2-(3-bromophenyl)-3-[2-furanyl(oxo)methyl]-4-hydroxy-1-[3-(1-imidazolyl)propyl]-2H-pyrrol-5-one]
> 155 µM | COc1ccccc1-c1cc(C(F)(F)F)nc(N2CCOCC2)n1
> 155 µM | O=C(N/N=C/c1sc(N2CCOCC2)nc1-c1ccccc1)c1ccc(O)cc1 [MLS000336683]
> 155 µM | CCN(c1ccccc1)c1nc2nonc2nc1NCCO [2-[6-(Ethyl-phenyl-amino)-[1,2,5]oxadiazolo[3,4-b]pyrazin-5-ylamino]-ethanol]
> 155 µM | O=C(O)c1cccc(N=NCc2sc(N3CCOCC3)nc2-c2ccccc2)c1 [3-[(2E)-2-[(2-morpholin-4-yl-4-phenyl-1,3-thiazol-5-yl)methylidene]hydrazinyl]benzoic acid]
> 155 µM | N#Cc1c(-n2cccc2C=O)sc2c1CCCC2 [2-(2-methanoylpyrrol-1-yl)-4,5,6,7-tetrahydro-1-benzothiophene-3-carbonitrile]
> 155 µM | COC(=O)N1[C@H](C)C=C[C@]1(Cc1ccccc1)C(=O)NCCCNc1ncc(C(F)(F)F)cc1Cl [(2R,5R)-5-[[3-[[3-chloro-5-(trifluoromethyl)-2-pyridinyl]amino]propylamino]-oxomethyl]-2-methyl-5-(phenylmethyl)-2H-pyrrole-1-carboxylic acid methyl ester]
> 155 µM | Cc1ccc(Nc2[nH]nc(C)c2[N+](=O)[O-])cc1C [(3,4-Dimethyl-phenyl)-(5-methyl-4-nitro-2H-pyrazol-3-yl)-amine]
> 155 µM | c1ccc(-n2nnnc2-n2nnc3ccccc32)cc1 [1-(1-phenyl-1,2,3,4-tetrazol-5-yl)benzotriazole]
> 155 µM | O=c1oc2ccccc2c2c1cnc1ccccc12 [MLS000518195]
> 155 µM | Cc1ccc(-c2cc(C(F)F)nc(N3CCOCC3)n2)cc1
> 155 µM | CC(N=Nc1ccc(C#N)cc1[N+](=O)[O-])C1C=CC(=O)C=C1 (stereo unspecified) [3-nitro-4-[2-[1-(4-oxidanylidenecyclohexa-2,5-dien-1-ylidene)ethyl]hydrazinyl]benzenecarbonitrile]
> 155 µM | N#Cc1c(N2CCCC2)ccc(Br)c1Cl [3-bromo-2-chloro-6-tetrahydro-1H-pyrrol-1-ylbenzonitrile]
> 155 µM | CCOC(=O)C1CCN(C(=O)c2c(C)oc3c2C(=O)c2ccccc2C3=O)CC1
> 155 µM | CC1(C)C2CCC(CN=C(N)CSS(=O)(=O)O)C1C2 (stereo unspecified) [SMR001821892]
> 155 µM | CC(Nc1cc(N2CCOCC2)ccc1[N+](=O)[O-])c1ccccc1 (stereo unspecified) [MLS000573605]
> 155 µM | NC(=O)COc1ccc2oc(=O)cc(-c3cc4ccccc4o3)c2c1 [SMR000641652]
> 155 µM | NC(=O)c1ccc(Nc2ccc3c(c2)CCC3)c([N+](=O)[O-])c1 [4-(2,3-dihydro-1H-inden-5-ylamino)-3-nitro-benzamide]
> 155 µM | CCC(C)c1ccccc1NC(=O)COC(=O)C1=NN(c2ccccc2)C(=O)CC1 (stereo unspecified) [6-oxo-1-phenyl-4,5-dihydropyridazine-3-carboxylic acid [2-(2-butan-2-ylanilino)-2-oxoethyl] ester]
> 155 µM | Cc1ccc(C)n1-n1c(C)nc2scc(-c3ccccc3)c2c1=O [MLS000564386]
> 155 µM | CCOC(=O)C1CCCN(C(=O)c2cnn3c(C(F)F)cc(-c4ccc(C)cc4)nc23)C1 (stereo unspecified) [1-[7-(difluoromethyl)-5-(p-tolyl)pyrazolo[1,5-a]pyrimidine-3-carbonyl]nipecotic acid ethyl ester]

Structure (SMILES) | IC50
CCOP(=O)(CCP(=O)(OCC)OCC)OCC [MLS002702923] | 11 µM
